The structures appear in SMILES notation.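 Cells were grown in 96-well plates and exposed to each compound for 48 hours at five concentrations; endpoints were interpolated linearly between bracketing concentrations, or set to the highest concentration if not reached. Here, GI50 denotes the concentration required for 50% inhibition of growth.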 Active and inactive are the calls of the source. No stated cut-off is given here; in the data, active = GI50 up to about 1.1 µM and inactive = higher. Non-standard residues stand in square brackets, D forms with d. Residues, ends and D or L forms follow the SMILES beside them. ξ: configuration not given here. *: point of attachment. Cbz = O=C(OCc1ccccc1)*; ξK = NCCCCC(N)C(=O)O Bounds are passed on as bounds.

Common to all, as to assay: inhibition of tumour cell growth, NCI panel, 48 h
Test [1] deals with SR.
In test [2] the test system is Hs-578T.
Test [3] concerns LOX IMVI.
The subject of test [4] is SK-MEL-28.
In test [5] the test system is K562.
Test [6] deals with HT-29.
Test [7] concerns OVCAR-8.
Test [8] has as its system HOP-62.
Test [9] has as its system Malme-3M.
Test [10] has as its system MDA-MB-435.
Test [11] has as its system CAKI-1.
Test [12] deals with NCI/ADR-RES.
In test [13] the test system is HCT-15.
Test [14] relates to A549.
The test system of test [15] is SK-MEL-5.
Test [16] has as its system SNB-75.
The subject of test [17] is MCF7.
Test [18] relates to MOLT-4.
Test [19] concerns KM12.
Test [20] concerns BT-549.

Take `Nc1cc2c3c(cccc3c1)NC2=O`: the GI50 was > 100 µM (inactive) in test [1]; > 100 µM (inactive) in test [2]; 51.4 µM (inactive) in test [3]; > 100 µM (inactive) in test [4]; > 100 µM (inactive) in test [5]; > 100 µM (inactive) in test [6]. In addition, the GI50 in test [7] is > 100 µM (inactive); in test [8], 22.1 µM (inactive); in test [9], > 100 µM (inactive); in [10], > 100 µM (inactive); in test [11], 24.6 µM (inactive); in [12], > 100 µM (inactive). Also, the GI50 in [13] is over 100 µM; in test [14], 69.2 µM (inactive); in test [15], 92.3 µM (inactive); in test [16], 14.6 µM (inactive); in [17], 27.9 µM (inactive); in test [18], 24 µM (inactive). Moreover, the GI50 in [19] was > 100 µM (inactive).

For `C=C1C(O)C[C@H](OC(C)=O)[C@]2(C)C1C(OC(C)=O)[C@]1(C(C)(C)O)CC(O)C(C)=C1[C@@H](OC(=O)c1ccccc1)C2OC(C)=O` (stereo not given in full), the GI50 in test [1], in test [2], in [3], in test [4], in test [5] and in [6] was > 10 µM (inactive) in each case. In addition, the GI50 in [7] is > 10 µM (inactive); in test [10], > 10 µM (inactive); in test [11] it was > 10 µM (inactive); in [12], > 10 µM (inactive); in test [13], over 10 µM; in test [14], > 10 µM (inactive). Moreover, the GI50 in [15], in [16], in [17], in test [18] and in [19] was > 10 µM (inactive) each time.

Consider `COC12c3ccccc3-c3ccccc3C1[C@@H](C(=O)O)[C@H]2C(=O)O` (stereo not given in full), for which the GI50 in test [1], in test [2], in test [3], in [4], in [5] and in test [6] was > 10 µM (inactive) in each case. Also, the GI50 in test [7], in test [8], in test [9], in test [10], in test [11] and in test [12] was > 10 µM (inactive) throughout. Besides, the GI50 in test [13] is over 10 µM; in test [15], > 10 µM (inactive); in test [16], > 10 µM (inactive); in [17], > 10 µM (inactive); in test [18], > 10 µM (inactive); in test [19], > 10 µM (inactive).

Consider `CC(C)(C)OC(=O)n1cc(C2CNC(=O)C23CCC(=O)N3Cc2ccccc2)c2ccccc21` (stereo not given), for which the GI50 in test [1] is 32.4 µM (inactive); in test [2], 29.9 µM (inactive); in test [3] it was 19.8 µM (inactive); in test [5], 41.1 µM (inactive); in [6] it was 19.1 µM (inactive); in [8], 24.8 µM (inactive). The GI50 in [9] was 21.9 µM (inactive); in test [10], 20 µM (inactive); in test [11], 36.9 µM (inactive); in test [12], 32.4 µM (inactive); in test [14], 18.7 µM (inactive); in test [15], 16.9 µM (inactive). The GI50 in test [16] was 18.1 µM (inactive); in [17], 27.9 µM (inactive); in test [18], 36.9 µM (inactive); in [19], 25.5 µM (inactive).

`Nc1cnc2c(c1)c(=O)nc1n2CCS1`: the GI50 in [3], in test [20], in [4], in [5], in test [6] and in test [7] was > 100 µM (inactive) in each case. For the same compound, the GI50 is > 100 µM (inactive) in test [8]; > 100 µM (inactive) in [9]; > 100 µM (inactive) in test [10]; 72.4 µM (inactive) in test [11]; > 100 µM (inactive) in [12]; over 100 µM in [13]. In addition, the GI50 in [14] is > 100 µM (inactive); in test [15], > 100 µM (inactive); in test [16], 86.9 µM (inactive); in test [17], > 100 µM (inactive); in [18], > 100 µM (inactive); in test [19], 55.1 µM (inactive).

Take `N#CCCC(CC#N)N1CCN(CCO)CC1` (stereo not given): the GI50 in [1] is > 100 µM (inactive); in [2] it was 61.4 µM (inactive); in test [4] it was > 100 µM (inactive); in test [5], > 100 µM (inactive); in test [6], > 100 µM (inactive); in test [7], > 100 µM (inactive). In addition, the GI50 in test [8] was > 100 µM (inactive); in [9], > 100 µM (inactive); in test [10], > 100 µM (inactive); in test [12], > 100 µM (inactive); in test [13], over 100 µM; in [14], > 100 µM (inactive). Moreover, the GI50 in [15], in test [16], in test [17], in [18] and in test [19] was > 100 µM (inactive) each time.

Take `BrC(c1cccc2ccccc12)c1cccc2ccccc12`: the GI50 in test [1] was > 100 µM (inactive); in test [3], 15.8 µM (inactive); in test [20], 21.4 µM (inactive); in [4], 19.5 µM (inactive); in test [5], > 100 µM (inactive); in [6], 18.3 µM (inactive). The GI50 in test [7] is 17.3 µM (inactive); in test [8], 14.1 µM (inactive); in [9], 4.94 µM (inactive); in test [10], 7.23 µM (inactive); in [11], 22.2 µM (inactive); in [12], 16.5 µM (inactive). In addition, the GI50 in test [13] is 17.7 µM; in test [14], 26.4 µM (inactive); in [15] it was 17.5 µM (inactive); in [16], 13.5 µM (inactive); in test [18], > 100 µM (inactive); in test [19] it was 15.5 µM (inactive).

With `NCCCCC(NC(=O)OCc1ccccc1)C(=O)NCC(N)=O` (stereo not given) (Cbz-[ξK]-Gly-NH2), the GI50 in test [1], in test [2], in [3], in test [4], in test [5] and in test [6] was > 100 µM (inactive) throughout. The GI50 in test [7], in test [8], in test [9], in test [10], in test [11] and in test [12] was > 100 µM (inactive) throughout. For the same compound, the GI50 is over 100 µM in test [13]; > 100 µM (inactive) in [14]; > 100 µM (inactive) in test [15]; > 100 µM (inactive) in [16]; > 100 µM (inactive) in [17]; > 100 µM (inactive) in test [18]. Moreover, the GI50 in [19] is > 100 µM (inactive).

As for `CCCC1C(CC)C(NC)C(C#N)(C#N)C1(C#N)C#N` (stereo not given), the GI50 was 16.9 µM (inactive) in [1]; 25.9 µM (inactive) in test [2]; 16.3 µM (inactive) in test [3]; 30.2 µM (inactive) in [4]; 23.7 µM (inactive) in [5]; 13.6 µM (inactive) in [6]. Moreover, the GI50 in test [7] is 20.7 µM (inactive); in [8] it was 15 µM (inactive); in test [9] it was 21.2 µM (inactive); in test [10] it was 25.3 µM (inactive); in test [11] it was 11.4 µM (inactive); in test [12], 17.9 µM (inactive). Also, the GI50 was 13.2 µM in [13]; 34.8 µM (inactive) in test [14]; 12.1 µM (inactive) in test [15]; 10 µM (inactive) in test [16]; 23.5 µM (inactive) in test [17]; 24.1 µM (inactive) in [18]. Also, the GI50 in test [19] was 16.4 µM (inactive).

Turning to `Nc1ccccc1-n1c2c(c3ccccc3c1=O)C(=O)c1ccccc1-2`, the GI50 in test [3] is 12.5 µM (inactive); in [20], 0.857 µM (active); in test [4], 36.5 µM (inactive); in [5], > 100 µM (inactive); in test [6] it was 18.4 µM (inactive); in test [7], 14.5 µM (inactive). For the same compound, the GI50 in test [8] is 7.14 µM (inactive); in [9], 16.3 µM (inactive); in [10] it was 57.9 µM (inactive); in test [11], 16.7 µM (inactive); in test [12], 14.6 µM (inactive); in test [13] it was 38 µM. Moreover, the GI50 in [14] was 11.5 µM (inactive); in test [15], 10.4 µM (inactive); in test [16], 11.8 µM (inactive); in [17], 13.3 µM (inactive); in test [18], 4.25 µM (inactive); in test [19], 71.6 µM (inactive).

Consider `O=C1NC(=O)/C(=C\c2ccncc2)N1`, for which the GI50 in test [3], in test [20], in test [4], in test [6], in test [7] and in test [8] was > 100 µM (inactive) in each case. Moreover, the GI50 was > 100 µM (inactive) in [10]; > 100 µM (inactive) in test [11]; > 100 µM (inactive) in [12]; over 100 µM in test [13]; > 100 µM (inactive) in [14]; > 100 µM (inactive) in test [15]. Further, the GI50 in test [16], in [17], in test [18] and in [19] was > 100 µM (inactive) in each case.

These data come from ChEMBL document CHEMBL1201862, “PubChem BioAssay data set” (2004).
